Experimental data: US20240299334A1, “PHARMACEUTICAL COMPOSITION OF NAPHTHALENE DERIVATIVES AS MULTI-TARGETED THERAPEUTIC AGENTS FOR THE TREATMENT OF ALZHEIMER'S DISEASE” (CENTRO DE NEUROCIENCIAS DE CUBA, CNEURO, priority 2020, published 2024)

Key:
[1] = test system: memory loss induced by an acute administration of scopolamine (ESC); assay: Y-maze, short-term spatial memory, acute scopolamine (ESC) model; type: in vivo, mice
Description: (§1) Young male OF-1 mice (20-25 g), supplied by the National Center for the Laboratory Animals Production (CENPALAB, Cuba), were used. Before the experiment, the animals were adapted for seven days to laboratory conditions (controlled temperature 25±2° C., relative humidity 60±10% and light/dark cycles of 12 h). During this period, and during the experiment, the animals received ad libitum water and a standard diet for rodents supplied by CENPALAB. All procedures were carried out in accordance with the European Commission guidelines for the use and care of laboratory animals and approved by the Committee for the Care of Research Animals. The minimum number of animals and duration of observations required to obtain consistent data was used.
At the end of the adaptation period, the animals were randomly distributed according to their body weights in 5 experimental groups of 12 animals per group. Scopolamine hydrobromohydrate (ESC, Sigma Aldrich) was used to induce cognitive deficit, which was dissolved in physiological saline and administered intraperitoneally (ip) at a dose of 1.5 mg/kg, 30 minutes before the test (Miranda H F et al. in. J. Biomed. Sci., 2014 21 (1): 62-62). The doses of compound 3 used were 0.1, 1, 10 and 20 mg/kg of body weight. The compound was formulated using carboxymethyl cellulose (CMC). The administration scheme was designed as follows:
Group 1 (negative control) with normal cognitive function. Two administrations with an interval of 30 minutes with vehicle (5% CMC) by oral route and saline solution by i.p. route, respectively.
Group 2 (positive control) with cognitive dysfunction. Two administrations with an interval of 30 minutes, the first with vehicle (5% CMC), the second with ESC 1 mg/kg.
Group 3, 4, 5 and 6 treated with 3 (0.1, 1, 10 and 20 mg/kg). Two administrations with an interval of 30 minutes, the first with 3 at the dose corresponding to each group, the second with ESC 1 mg/kg. The behavioral evaluation was carried out 30 minutes after this second administration.
The study of short-term spatial memory was carried out through the study of novel spatial preference, using the Y-maze behavioral paradigm (40 cm long×9 cm wide×16 cm high) with extra-labyrinthine tracks around of the maze. The test consisted of two trials separated by an interval of 2 hours. In the first training test (acquisition), the mice were placed in the center of the maze and facing the end of one of the arms whose selection was random. After being positioned, they were allowed to explore the maze for 10 minutes with one of the arms closed (novel arm). At the end of this test, the mice were returned to their original cage until the second test (recovery), during which they could freely explore the three arms of the maze for 5 minutes. The total residence time (exploration) in each arm was measured and analyzed from video recordings. The entrance to the arm was defined as the entrance of the four legs of the animal in said arm. The residence time (sec) in each arm during the recovery test of the learned task was used for the statistical analysis. The maze was cleaned with 70% ethanol between runs. All mice were transported to the behavioral testing room in their home cages at least 1 day prior to testing. The experiments were carried out between 8:00 am and 12:30 pm.
All data are expressed as the mean±standard error of the mean (SEM). The Morris water maze data was analyzed in two ways. Escape latencies in the visible platform training phase were analyzed using a two-factor ANOVA (treatment×trial). For the study of long-term memory, the last escape latency value of the training phase with the visible platform (D1 V4) and the first value of the test with the hidden platform performed 24 h later (D2T1) were used. Mice with intact long-term memory capacity should quickly reach the hidden platform in the first test. A scoring system was generated with the difference D2T1−D1 V4 and with the ratio D2T1/D1V4. […]

[2] = test system: memory loss induced by an acute administration of scopolamine (ESC); assay: Morris water maze, two-day protocol, acute ESC model; type: in vivo, mice; settings: long-term spatial memory
Description: as §1
At the end of the adaptation period, the animals were randomly distributed according to their body weights in 5 experimental groups of 12 animals per group. […]
The experience was carried out for two days; a first day of training and a second day of testing. […] 24 hours after the last visible platform test (D2), the animals were evaluated in a series of three tests with the hidden platform (T1-T3). […]
All data are expressed as the mean±standard error of the mean (SEM). The Morris water maze data was analyzed in two ways. Escape latencies in the visible platform training phase were analyzed using a two-factor ANOVA (treatment×trial). […]

## CSC(=S)NCCNC(=O)CCC(=O)Nc1cccc2ccccc12 [compound 3, methyl(2-{[4-(1-naphthylamino)-4-oxobutanoyl]amino}ethyl)dithiocarbamate]
[1]; Y-maze, acute ESC model
  dose with the greatest effect: 1 mg/kg
[1]; compound 3 at doses higher than 1 mg/kg (10, 20 mg/kg)
  residence (exploration) time in the novel arm: a decrease in this parameter was observed
[1]; compound 3 single doses 0.1 mg/kg to 10 mg/kg, 30 min before ESC, p<0.001
  amnesia induced by ESC, preference for novel arm in Y-maze: significantly reversed
[1]; compound 3 up to the 1 mg/kg dose, p<0.01 vs ESC
  residence (exploration) time in the novel arm: gradual increase in the exploration time, significantly different from the ESC group
[2]
  difference and ratio of escape latency, last visible-platform test vs first hidden-platform test: differs significantly from the group with ESC
